32 molecules from US8940739B2, “Compound of a reverse-turn mimetic and a production method and use therefor” (JW Pharmaceutical Corporation, priority 2010, dated 2015) can be followed below.

pIC50: −log10 of the molar value.

Series [1] deals with cDNA-expressed human hepatic CYP3A4 (Homo sapiens (Human), UniProt P08684). Description: Measurement of CYP (IC50 of P450 CYP3A4), BFC substrate. The series is classed as in vitro ADME. The note with it: 20 minutes. Put shortly:
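cDNA-expressed human CYP3A4 supersomes in 0.1M potassium phosphate pH 7.4 with 8.3 mM MgCl2, 1.67 mM EDTA and 0.25 mM NADPH; compounds in acetonitrile (<1% final). Reaction started with 30 µM BFC, 20 min at 37. 7-Hydroxy-4-trifluoromethyl-coumarin read by fluorescence (ex 409/em 530 nm).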

Series [2] can be described thus: MLM, hepatic metabolic stability. It is filed as in vitro ADME. Conditions: mouse hepatic microsome, amount at 30 minutes compared with 0 minutes. On the procedure:
For the sake of retaining efficacy of novel drugs and preventing side-effects, hepatic metabolic stability is regarded as very important. Hepatic metabolic stability is typically determined using microsome or S9. In the present test, a microsome having CYP450 as a main component, which plays a great role in metabolism, was used to evaluate the metabolic stability.
This assay was performed in a 200 l volume in a 13 ml glass tube using mouse hepatic microsome whose activity was measured.
The compounds of Examples 1 to 5 were dissolved in DMSO (dimethyl sulfoxide) to prepare a 25 mM stock solution, which was then diluted with 50% acetonitrile and used in the test. A potassium phosphate buffer (pH 7.4, final concentration 0.1M), MgCl2 (final concentration 0.1M), a diluted inventive compound stock solution (final concentration 1 mM), and a mouse microsome (final concentration 5 mg/ml) were added to the glass tube. The reaction was initiated by the addition of a cofactor NADPH (final concentration 12.5 mM) after pre-incubation at 37 for 3 minutes. The reaction was carried out at 37 for 10 minutes and 30 minutes, and then terminated with 1000 μl of acetonitrile, and the remaining inventive compound was extracted. The centrifugation was conducted at 3000 rpm for 10 minutes, after which the supernatant was dried and dissolved again in 150 μl of 50% acetonitrile and quantitatively analyzed by HPLC. 0 minutes and 30 minutes after reaction, the amounts of the compounds of the present invention were compared thus evaluating the extent of metabolic stability.

In series [3] the test system is MV-4-11 (human, Acute Myeloid Leukemia cell line) cells. Briefly: Cell growth inhibition assay, GI50 of MV-4-11. The series is classed as cell-based. Conditions: Homo sapiens, MV4-11, 72 h, MV-4-11 cells. The procedure, abridged: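 MV-4-11 AML cells (5×10^4/well, IMDM with 10% FBS) treated in duplicate with serially diluted compounds for 72 hours at 37 °C. Viability read as absorbance at 490 nm after CellTiter 96 Aqueous One (MTS) addition; GI50 calculated from the concentration-response.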

Chain of cDNA-expressed human hepatic CYP3A4 (P08684 whole entry): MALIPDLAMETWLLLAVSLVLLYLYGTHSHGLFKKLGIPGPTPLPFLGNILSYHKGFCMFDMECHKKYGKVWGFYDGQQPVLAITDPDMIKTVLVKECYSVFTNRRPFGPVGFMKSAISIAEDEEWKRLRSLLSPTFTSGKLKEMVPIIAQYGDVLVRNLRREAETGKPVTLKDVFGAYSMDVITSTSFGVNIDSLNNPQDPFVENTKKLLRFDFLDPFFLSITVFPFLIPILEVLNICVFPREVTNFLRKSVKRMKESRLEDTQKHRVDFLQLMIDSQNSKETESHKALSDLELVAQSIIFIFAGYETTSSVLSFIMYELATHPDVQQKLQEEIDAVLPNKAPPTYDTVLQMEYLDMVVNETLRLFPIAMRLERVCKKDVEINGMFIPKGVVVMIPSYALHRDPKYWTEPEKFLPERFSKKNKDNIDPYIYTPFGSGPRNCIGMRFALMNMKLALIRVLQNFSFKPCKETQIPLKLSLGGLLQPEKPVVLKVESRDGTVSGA

With `C=CCN1CC(=O)N2[C@@H](Cc3ccc(O)cc3)C(=O)N(Cc3cccc4c(C(=O)N5CC(N6CCN(C)CC6)C5)cn(C)c34)C[C@@H]2N1C(=O)NCc1ccccc1` [Compound E-71], the pIC50 (commonly the negative decadic logarithm of the IC50, by convention in mol/L) in series [1] is below 4.60. Besides, the “MLM (%)” value in series [2] is on record as 67.2%.
On to `C=CCN1CC(=O)N2C(Cc3ccc(O)cc3)C(=O)N(Cc3cccc4c(C(=O)Nc5ccc(N6CCN(c7ccc(C(F)(F)F)cc7)CC6)nc5)cn(C)c34)CC2N1C(=O)NCc1ccccc1` (stereo not shown) [Compound G-58], for which the pIC50 in series [1] was 4.63. Besides, the “MLM (%)” value in series [2] is on record as 85.1%.
`C=CCN1CC(=O)N2[C@@H](Cc3ccc(O)cc3)C(=O)N(Cc3cccc4c(C(=O)Nc5ccc(OCCOC)nc5)cn(C)c34)C[C@@H]2N1C(=O)NCc1ccccc1` [Compound G-11]: it took 0.0018 µM to inhibit growth in series [3] by half (GI50). In series [1], this molecule showed a pIC50 of 5.12.
On to `C=CCN1CC(=O)N2[C@@H](Cc3ccc(O)cc3)C(=O)N(Cc3cccc4c(-c5ccc(NC(=O)N6CCN(S(C)(=O)=O)CC6)nc5)cn(C)c34)C[C@@H]2N1C(=O)NCc1ccccc1` [Compound D-97], for which the 50% growth inhibitory concentration (GI50) (commonly the concentration giving 50% growth inhibition) in series [3] came out at 0.0022 µM. In series [1], the pIC50 was 5.19.
In series [3], `C=CCN1CC(=O)N2[C@@H](Cc3ccc(O)cc3)C(=O)N(Cc3cccc4c(-c5ccc(NC(=O)Nc6ccc(OC)cc6)cc5)cn(C)c34)C[C@@H]2N1C(=O)NCc1ccccc1` [Compound D-76] gave a GI50 of 0.0158 µM. In series [1], this molecule gave a pIC50 of 5.02.
`C=CCN1CC(=O)N2[C@@H](Cc3ccc(O)cc3)C(=O)N(Cc3cccc4c(C(=O)Nc5ccc(NCCN(C)C)nc5)cn(C)c34)C[C@@H]2N1C(=O)NCc1ccccc1` [Compound G-23]: growth in series [3] was halved (GI50) at 0.0013 µM. The molecule also showed a pIC50 in series [1] of 5.17.
With `C=CCN1CC(=O)N2C(Cc3ccc(O)cc3)C(=O)N(Cc3cccc4c(C(=O)Nc5ccc(N6CCN(CCC)CC6)nc5)cn(C)c34)CC2N1C(=O)NCc1ccccc1` (stereo not shown) [Compound G-43], the GI50 in series [3] was 0.0013 µM. Further, the pIC50 in series [1] is 5.16.
`C=CCN1CC(=O)N2[C@@H](Cc3ccc(O)cc3)C(=O)N(Cc3cccc4c(C(=O)NCCCOC)cn(C)c34)C[C@@H]2N1C(=O)NCc1ccccc1` [Compound F-6] gave a GI50 in series [3] of 0.0119 µM. Moreover, the pIC50 in series [1] is 5.42.
On the same counts, the results for `C=CCN1CC(=O)N2[C@@H](Cc3ccc(O)cc3)C(=O)N(Cc3cccc4c(C(=O)Nc5ccc(OCCN(C)C)nc5)cn(C)c34)C[C@@H]2N1C(=O)NCc1ccccc1` [Compound G-12] are 0.0099 µM and 5.00.
On the same counts, the results for `C=CCN1CC(=O)N2[C@@H](Cc3ccc(O)cc3)C(=O)N(Cc3cccc4c(-c5ccc(C(=O)Nc6ccc(N7CCOCC7)nc6)cc5)cn(C)c34)C[C@@H]2N1C(=O)NCc1ccccc1` [Compound D-12] are 0.0021 µM and below 4.60.
On the same counts, the results for `C=CCN1CC(=O)N2C(CN(Cc3cccc4c(C(=O)Nc5ccc(CCO)cc5)cn(C)c34)C(=O)[C@@H]2Cc2ccc(O)cc2)N1C(=O)NCc1ccccc1` (stereo partly shown) [Compound G-10] are 0.0017 µM and 5.13.
On to `C=CCN1CC(=O)N2[C@@H](Cc3ccc(O)cc3)C(=O)N(Cc3cccc4c(C(=O)Nc5ccc(OC(C)(C)C)cc5)cn(C)c34)C[C@@H]2N1C(=O)NCc1ccccc1` [Compound G-6], for which, in series [3], growth was halved (GI50) at 0.014 µM. In series [1], this molecule gave a pIC50 of 4.72.
Consider `C=CCN1CC(=O)N2[C@@H](Cc3ccc(O)cc3)C(=O)N(Cc3cccc4c(-c5ccc(NC(=O)NCCc6ccccc6)cc5)cn(C)c34)C[C@@H]2N1C(=O)NCc1ccccc1` [Compound D-75], for which growth in series [3] was halved (GI50) at 0.017 µM. For the same molecule, the pIC50 in series [1] was 4.98.
On the same counts, the results for `C=CCN1CC(=O)N2[C@@H](Cc3ccc(O)cc3)C(=O)N(Cc3cccc4c(C(=O)N5CCC(OC)CC5)cn(C)c34)C[C@@H]2N1C(=O)NCc1ccccc1` [Compound E-52] are 0.0092 µM and 5.48.
As to `C=CCN1CC(=O)N2[C@@H](Cc3ccc(O)cc3)C(=O)N(Cc3cccc4c(C(=O)Nc5cnc(N6CCN(C(C)C)CC6)nc5)cn(C)c34)C[C@@H]2N1C(=O)NCc1ccccc1` [Compound G-47], halving of growth in series [3] (GI50) required 0.0023 µM. Besides, the pIC50 in series [1] is 5.44.
Take `C=CCN1CC(=O)N2[C@@H](Cc3ccc(O)cc3)C(=O)N(Cc3cccc4c(-c5ccc(NC(=O)c6ccc(OC)cc6)cc5)cn(C)c34)C[C@@H]2N1C(=O)NCc1ccccc1` [Compound D-49]: in series [3], growth was halved (GI50) at 0.01 µM. The molecule also gave a pIC50 in series [1] below 4.60.
With `C=CCN1CC(=O)N2C(CN(Cc3cccc4c(C(=O)Nc5ccc(N6CCN(C(C)C)CC6)nc5)cn(C)c34)C(=O)[C@@H]2Cc2ccc(O)cc2)N1C(=O)NCc1ccccc1` (stereo partly shown) [Compound G-46], the GI50 in series [3] came out at 0.0013 µM. The same molecule had a pIC50 in series [1] of 5.21.
In series [3], `C=CCN1CC(=O)N2[C@@H](Cc3ccc(O)cc3)C(=O)N(Cc3cccc4c(-c5ccc(NC(=O)Nc6cnccn6)cc5)cn(C)c34)C[C@@H]2N1C(=O)NCc1ccccc1` [Compound D-83] yielded a GI50 of 0.0138 µM. Also, in series [1], the pIC50 was 5.34.
Consider `C=CCN1CC(=O)N2[C@@H](Cc3ccc(O)cc3)C(=O)N(Cc3cccc4c(-c5ccc(C(=O)Nc6cccc(OC(C)C)c6)cc5)cn(C)c34)C[C@@H]2N1C(=O)NCc1ccccc1` [Compound D-26], for which, in series [3], the GI50 is 0.019 µM. In series [1], this molecule showed a pIC50 of 4.86.
On the same counts, the results for `C=CCN1CC(=O)N2[C@@H](Cc3ccc(O)cc3)C(=O)N(Cc3cccc4c(C(=O)NCc5ccnc(N(C)C)c5)cn(C)c34)C[C@@H]2N1C(=O)NCc1ccccc1` [Compound F-48] are 0.0107 µM and 5.66.
With `C=CCN1CC(=O)N2[C@@H](Cc3ccc(O)cc3)C(=O)N(Cc3cccc4c(C(=O)Nc5ccc(N6CCC(N7CCN(C)CC7)CC6)nc5)cn(C)c34)C[C@@H]2N1C(=O)NCc1ccccc1` [Compound G-57], in series [3], the GI50 was 0.0013 µM. In addition, the pIC50 in series [1] was 5.20.
In turn, `C=CCN1CC(=O)N2[C@@H](Cc3ccc(O)cc3)C(=O)N(Cc3cccc4c(C(=O)N(C)CCO)cn(C)c34)C[C@@H]2N1C(=O)NCc1ccccc1` [Compound F-3] returned a 50% growth inhibitory concentration (GI50) in series [3] of 0.0076 µM. In series [1], the pIC50 was 5.60.
`C=CCN1CC(=O)N2C(Cc3ccc(O)cc3)C(=O)N(Cc3cccc4c(C(=O)Nc5ccc(NCCCN6CCCC6)nc5)cn(C)c34)CC2N1C(=O)NCc1ccccc1` (stereo not shown) [Compound G-32] gave a GI50 in series [3] of 0.0119 µM. In addition, in series [1], the pIC50 is 5.59.
Take `C=CCN1CC(=O)N2[C@@H](Cc3ccc(O)cc3)C(=O)N(Cc3cccc4c(-c5ccc(C(=O)Nc6cccc(OC)c6)cc5)cn(C)c34)C[C@@H]2N1C(=O)NCc1ccccc1` [Compound D-21]: the GI50 in series [3] worked out at 0.0069 µM. In series [1], this molecule had a negative logarithm of the IC50 (pIC50) of 5.19.
`C=CCN1CC(=O)N2[C@@H](Cc3ccc(O)cc3)C(=O)N(Cc3cccc4c(C(=O)Nc5ccc(N6CC7CCN(C)C7C6)nc5)cn(C)c34)C[C@@H]2N1C(=O)NCc1ccccc1` (stereo partly shown) [Compound G-64] showed a GI50 in series [3] of 0.0013 µM. The pIC50 in series [1] is 5.12.
In turn, `C=CCN1CC(=O)N2[C@@H](Cc3ccc(O)cc3)C(=O)N(Cc3cccc4c(C(=O)NCc5ccc(N(C)C)nc5)cn(C)c34)C[C@@H]2N1C(=O)NCc1ccccc1` [Compound F-47] displayed a GI50 in series [3] of 0.0069 µM. In series [1], this molecule showed a pIC50 of 5.69.
In turn, `C=CCN1CC(=O)N2[C@@H](Cc3ccc(O)cc3)C(=O)N(Cc3cccc4c(C(=O)N5CCN6CCCC6C5)cn(C)c34)C[C@@H]2N1C(=O)NCc1ccccc1` (stereo partly shown) [Compound E-43] yielded a GI50 in series [3] of 0.0151 µM. In series [1], this molecule gave a pIC50 of 5.18.
In series [3], `C=CCN1CC(=O)N2[C@@H](Cc3ccc(O)cc3)C(=O)N(Cc3cccc4c(C(=O)Nc5ccc(N6CCC(OC)CC6)nc5)cn(C)c34)C[C@@H]2N1C(=O)NCc1ccccc1` [Compound G-38] returned a GI50 of 0.0006 µM. For the same molecule, in series [1], the pIC50 is 5.66.
Regarding `C=CCN1CC(=O)N2[C@@H](Cc3ccc(O)cc3)C(=O)N(Cc3cccc4c(-c5ccc(C(=O)Nc6cccc(O)c6)cc5)cn(C)c34)C[C@@H]2N1C(=O)NCc1ccccc1` [Compound D-16], in series [3], the GI50 came out at 0.0156 µM. This molecule gave a pIC50 in series [1] of 5.09.
On the same counts, the results for `C=CCN1CC(=O)N2C(CN(Cc3cccc4c(C(=O)Nc5ccc(N6CCC7(CCN(CC)C7)C6)nc5)cn(C)c34)C(=O)[C@@H]2Cc2ccc(O)cc2)N1C(=O)NCc1ccccc1` (stereo partly shown) [Compound G-65] are 0.0013 µM and 5.41.
For `C=CCN1CC(=O)N2[C@@H](Cc3ccc(O)cc3)C(=O)N(Cc3cccc4c(-c5ccc(C(=O)Nc6ccc(N7CCN(C)CC7)cc6)cc5)cn(C)c34)C[C@@H]2N1C(=O)NCc1ccccc1` [Compound D-11] the same measures were 0.0018 µM and 5.15.
For the molecule `C=CCN1CC(=O)N2[C@@H](Cc3ccc(O)cc3)C(=O)N(Cc3cccc4c(C(=O)Nc5ccc(OC)cc5)cn(C)c34)C[C@@H]2N1C(=O)NCc1ccccc1` [Compound G-3], in series [3], the GI50 turned out to be 0.0057 µM. Also, in series [1], the pIC50 is 5.58.
